Measurements published in PubChem BioAssay AID1259407 (Chemical Carcinogenesis Research Information System (CCRIS), 2018).
Calls of active or inactive are those of the source. No rule for the calls is given here.

System: CCRIS mutagenicity, Ames/micronucleus/aberration tests
Experiment: CCRIS mutagenicity studies
[1] = Test System: AMES SALMONELLA TYPHIMURIUM, Strain/Indicator: TA98, Metabolic Activation: NONE, Method: STANDARD PLATE
[2] = Test System: AMES SALMONELLA TYPHIMURIUM, Strain/Indicator: TA100, Metabolic Activation: NONE, Method: STANDARD PLATE
[3] = Test System: AMES SALMONELLA TYPHIMURIUM, Strain/Indicator: TA98, Metabolic Activation: RAT, LIVER, S-9, AROCLOR 1254, Method: STANDARD PLATE
[4] = Test System: AMES SALMONELLA TYPHIMURIUM, Strain/Indicator: TA98, Metabolic Activation: NONE, Method: PREINCUBATION
[5] = Test System: AMES SALMONELLA TYPHIMURIUM, Strain/Indicator: TA100, Metabolic Activation: NONE, Method: PREINCUBATION
[6] = Test System: AMES SALMONELLA TYPHIMURIUM, Strain/Indicator: TA1535, Metabolic Activation: NONE, Method: PREINCUBATION

Structure (SMILES): O=C(CCl)Nc1snc2cc(Cl)ccc12
- mutagenic call [1]: inactive; negative
- mutagenic call (Test System: AMES SALMONELLA TYPHIMURIUM, Strain/Indicator: TA98, Metabolic Activation: S-9, Method: STANDARD PLATE): active; positive
- mutagenic call [2]: active; positive
- mutagenic call (Test System: AMES SALMONELLA TYPHIMURIUM, Strain/Indicator: TA100, Metabolic Activation: S-9, Method: STANDARD PLATE): active; positive
- mutagenic call (Test System: AMES SALMONELLA TYPHIMURIUM, Strain/Indicator: TA1535, Metabolic Activation: NONE, Method: STANDARD PLATE): inactive; negative
- mutagenic call (Test System: AMES SALMONELLA TYPHIMURIUM, Strain/Indicator: TA1535, Metabolic Activation: S-9, Method: STANDARD PLATE): inactive; negative
- mutagenic call (Test System: AMES SALMONELLA TYPHIMURIUM, Strain/Indicator: TA1537, Metabolic Activation: NONE, Method: STANDARD PLATE): active; positive
- mutagenic call (Test System: AMES SALMONELLA TYPHIMURIUM, Strain/Indicator: TA1537, Metabolic Activation: S-9, Method: STANDARD PLATE): active; positive

Structure (SMILES): COc1cc(N=Nc2ccc(N(CCO)CCO)cc2)ccc1N=Nc1c(S(=O)(=O)O)cc2ccc(N)cc2c1O
- mutagenic call [1]: inactive; negative
- mutagenic call [3]: active; positive
- mutagenic call [2]: inactive; negative
- mutagenic call (Test System: AMES SALMONELLA TYPHIMURIUM, Strain/Indicator: TA100, Metabolic Activation: RAT, LIVER, S-9, AROCLOR 1254, Method: STANDARD PLATE): inactive; negative
- mutagenic call (Test System: AMES SALMONELLA TYPHIMURIUM, Strain/Indicator: TA1538, Metabolic Activation: NONE, Method: STANDARD PLATE): inactive; negative
- mutagenic call (Test System: AMES SALMONELLA TYPHIMURIUM, Strain/Indicator: TA1538, Metabolic Activation: RAT, LIVER, S-9, AROCLOR 1254, Method: STANDARD PLATE): active; positive

Structure (SMILES): Nc1cccc(S(=O)(=O)O)c1
- mutagenic call (Test System: AMES SALMONELLA TYPHIMURIUM, Strain/Indicator: TA97, Metabolic Activation: HAMSTER, LIVER, S-9, AROCLOR 1254 (10 OR 30%), Method: PREINCUBATION): inactive; negative
- mutagenic call (Test System: AMES SALMONELLA TYPHIMURIUM, Strain/Indicator: TA97, Metabolic Activation: NONE, Method: PREINCUBATION): inactive; negative
- mutagenic call (Test System: AMES SALMONELLA TYPHIMURIUM, Strain/Indicator: TA97, Metabolic Activation: RAT, LIVER, S-9, AROCLOR 1254 (10 OR 30%), Method: PREINCUBATION): inactive; negative
- mutagenic call (Test System: AMES SALMONELLA TYPHIMURIUM, Strain/Indicator: TA98, Metabolic Activation: HAMSTER, LIVER, S-9, AROCLOR 1254 (10 OR 30%), Method: PREINCUBATION): inactive; negative
- mutagenic call [4]: inactive; negative
- mutagenic call (Test System: AMES SALMONELLA TYPHIMURIUM, Strain/Indicator: TA98, Metabolic Activation: RAT, LIVER, S-9, AROCLOR 1254 (10 OR 30%), Method: PREINCUBATION): inactive; negative
- mutagenic call (Test System: AMES SALMONELLA TYPHIMURIUM, Strain/Indicator: TA98, Metabolic Activation: S-9, Method: PREINCUBATION): inactive; negative
- mutagenic call (Test System: AMES SALMONELLA TYPHIMURIUM, Strain/Indicator: TA100, Metabolic Activation: HAMSTER, LIVER, S-9, AROCLOR 1254 (10 OR 30%), Method: PREINCUBATION): inactive; negative
- mutagenic call [5]: inactive; negative
- mutagenic call (Test System: AMES SALMONELLA TYPHIMURIUM, Strain/Indicator: TA100, Metabolic Activation: RAT, LIVER, S-9, AROCLOR 1254 (10 OR 30%), Method: PREINCUBATION): inactive; negative
- mutagenic call (Test System: AMES SALMONELLA TYPHIMURIUM, Strain/Indicator: TA100, Metabolic Activation: S-9, Method: PREINCUBATION): inactive; negative
- mutagenic call (Test System: AMES SALMONELLA TYPHIMURIUM, Strain/Indicator: TA1535, Metabolic Activation: HAMSTER, LIVER, S-9, AROCLOR 1254 (10 OR 30%), Method: PREINCUBATION): inactive; negative
- mutagenic call [6]: inactive; negative
- mutagenic call (Test System: AMES SALMONELLA TYPHIMURIUM, Strain/Indicator: TA1535, Metabolic Activation: RAT, LIVER, S-9, AROCLOR 1254 (10 OR 30%), Method: PREINCUBATION): inactive; negative
- mutagenic call (Test System: UDS RODENT HEPATOCYTES, Strain/Indicator: THY INCORP (NON-S-PHASE), Metabolic Activation: NONE, Method: AUTORADIOGRAPHY): inactive; negative

Structure (SMILES): CNc1ccc2ccc3ccc(O)cc3c2c1
- mutagenic call [3]: active; positive
- mutagenic call (Test System: AMES SALMONELLA TYPHIMURIUM, Strain/Indicator: TA98, Metabolic Activation: RAT, LIVER, S-9, AROCLOR, Method: STANDARD PLATE): active; positive

Structure (SMILES): C[C@@H](C(=O)OC(C)(C)C)N(N=[N+]=[N-])C(=O)OC(C)(C)C
- mutagenic call [2]: active; positive

Structure (SMILES): Clc1ccc2ccccc2n1
- mutagenic call [4]: inactive; negative
- mutagenic call (Test System: AMES SALMONELLA TYPHIMURIUM, Strain/Indicator: TA98, Metabolic Activation: RAT, LIVER, S-9, Method: PREINCUBATION): inactive; negative
- mutagenic call [5]: inactive; negative
- mutagenic call (Test System: AMES SALMONELLA TYPHIMURIUM, Strain/Indicator: TA100, Metabolic Activation: RAT, LIVER, S-9, PHENOBARBITAL AND 5,6-BENZOFLAVONE, Method: PREINCUBATION): inactive; negative
- mutagenic call (Test System: AMES SALMONELLA TYPHIMURIUM, Strain/Indicator: TA100, Metabolic Activation: RAT, LIVER, S-9, Method: PREINCUBATION): inactive; negative

Structure (SMILES): CSC[C@H](NC(=O)C(C)(C)SC)C(=O)O
- mutagenic call [4]: inactive; negative
- mutagenic call [5]: inactive; negative
- mutagenic call [6]: inactive; negative
- mutagenic call (Test System: AMES SALMONELLA TYPHIMURIUM, Strain/Indicator: TA1537, Metabolic Activation: NONE, Method: PREINCUBATION): inactive; negative
- mutagenic call (Test System: AMES SALMONELLA TYPHIMURIUM, Strain/Indicator: TA1538, Metabolic Activation: NONE, Method: PREINCUBATION): inactive; negative
- mutagenic call (Test System: E. COLI, Strain/Indicator: WP2, Metabolic Activation: NONE, Method: PREINCUBATION): inactive; negative
- mutagenic call (Test System: E. COLI, Strain/Indicator: WP2 UVRA, Metabolic Activation: NONE, Method: PREINCUBATION): inactive; negative

Structure (SMILES): c1ccc2c(c1)-c1cc3ccc4ccccc4c3cc1[C@H]1N[C@@H]21
- mutagenic call [1]: active; positive
- mutagenic call [2]: active; positive

Structure (SMILES): c1ccc2cc3c(cc2c1)c1c(c2ccccc23)O1
- mutagenic call [2]: active; positive
